Data reported in publication PMC6856039 (Investigational New Drugs, 2019).

Tested on: Japanese patients with advanced EGFR mutation-positive NSCLC
Assay: Phase I study: dose-limiting toxicities, adverse drug reactions, tolerability
Assay type: in vivo, human
Experimental: This was an open-label, non-randomized, dose escalation phase I study conducted between December 14, 2015 and July 7, 2016 at 12 centers in Japan. The study was conducted in three phases (dose escalation phase, expansion phase, and extension phase), and the design is shown in Supplementary Fig. 1 (Online Resource 1). […] In patients who received the BID regimen, the administration interval was ≥10 h.
The first phase was the dose escalation phase conducted according to a 3 + 3 design, with a minimum of three patients treated at each dose level. […] The dosing rationale was derived from a 4-weeks repeated oral-dose toxicology study in monkeys. […] If none of the initial three patients treated within a dose level experienced a dose-limiting toxicity (DLT) during Cycle 1, the dose was escalated to the next level. […] If none of the three additional patients experienced DLTs after all of them completed Cycle 1, the dose was escalated to the next level. If at least one of the additional three patients developed a DLT, then the dose escalation was stopped and at least six evaluable patients were enrolled at the previous dose level to establish the maximum tolerated dose (MTD). The maximum dose level was defined as Dose Level 9 (150 mg/day). Based on safety and PK results, the dosing schedule could be changed to a BID regimen.
AEs were evaluated and graded according to the National Cancer Institute Common Terminology Criteria for Adverse Events Version 4.03. DLTs were also evaluated and defined as hematologic toxicity (Grade 4 neutropenia lasting >7 days, Grade 4 thrombocytopenia or Grade 3 thrombocytopenia associated with bleeding and requiring blood transfusion, or febrile neutropenia) or non-hematologic toxicity (Grade ≥3 nausea/vomiting uncontrolled by aggressive antiemetic treatment, Grade ≥3 diarrhea lasting >48 h and unresponsive to treatment, Grade ≥3 aspartate aminotransferase/alanine aminotransferase lasting >7 days, corneal disorder worsening by ≥1 grade, or Grade ≥3 other non-hematological toxicity).

Structure (SMILES): C=CC(=O)N[C@H]1CCc2c(-c3cnc4ccccc4c3)c3c(N)ncnc3n2C1 [TAS-121]
- ALT increased, ≥G3 (4 mg/day QD, N = 29): 0 n
- AST increased, ≥G3 (4 mg/day QD, N = 29): 0 n
- Decreased appetite, any grade (4 mg/day QD, N = 29): 0 n
- Decreased appetite, ≥G3 (4 mg/day QD, N = 29): 0 n
- Diarrhea, any grade (4 mg/day QD, N = 29): 6 n
- Diarrhea, ≥G3 (4 mg/day QD, N = 29): 0 n
- Dry skin, ≥G3 (4 mg/day QD, N = 29): 0 n
- Hemoglobin decreased, ≥G3 (4 mg/day QD, N = 29): 0 n
- Hypoalbuminemia, ≥G3 (4 mg/day QD, N = 29): 0 n
- Malaise, ≥G3 (4 mg/day QD, N = 29): 0 n
- Nausea, ≥G3 (4 mg/day QD, N = 29): 0 n
- Pruritus, ≥G3 (4 mg/day QD, N = 29): 0 n
- Pyrexia, ≥G3 (4 mg/day QD, N = 29): 0 n
- Rash, ≥G3 (4 mg/day QD, N = 29): 0 n
- Stomatitis, ≥G3 (4 mg/day QD, N = 29): 0 n
- Urticaria, ≥G3 (4 mg/day QD, N = 29): 0 n
- Vomiting, ≥G3 (4 mg/day QD, N = 29): 0 n
- WBC decreased, ≥G3 (4 mg/day QD, N = 29): 0 n
- proportion of patients whose dose was decreased (8 mg/day BID (MTD) group, 7/38): 18.4%
- proportion of patients whose treatment was interrupted (8 mg/day BID (MTD) group, 17/38): 44.7%
- incidence of discontinuation due to ADRs (8 mg/day BID (MTD), 3/38): 7.9%
- AST increased, ≥G3 (8 mg/day BID, N = 38): 0 n
- Decreased appetite, ≥G3 (8 mg/day BID, N = 38): 0 n
- Dry skin, ≥G3 (8 mg/day BID, N = 38): 0 n
- Hypoalbuminemia, ≥G3 (8 mg/day BID, N = 38): 0 n
- Malaise, ≥G3 (8 mg/day BID, N = 38): 0 n
- Nausea, ≥G3 (8 mg/day BID, N = 38): 0 n
- Other embolic and thrombotic events, ≥G3 (8 mg/day BID, N = 38): 0 n
- Pruritus, ≥G3 (8 mg/day BID, N = 38): 0 n
- Pyrexia, ≥G3 (8 mg/day BID, N = 38): 0 n
- Stomatitis, ≥G3 (8 mg/day BID, N = 38): 0 n
- WBC decreased, ≥G3 (8 mg/day BID, N = 38): 0 n
- ALT increased, ≥G3 (8 mg/day QD, N = 38): 0 n
- AST increased, ≥G3 (8 mg/day QD, N = 38): 0 n
- Decreased appetite, ≥G3 (8 mg/day QD, N = 38): 0 n
- Dry skin, ≥G3 (8 mg/day QD, N = 38): 0 n
- Embolic and thrombotic events, any grade (8 mg/day QD, N = 38): 6 n
- Hypoalbuminemia, ≥G3 (8 mg/day QD, N = 38): 0 n
- Interstitial lung disease, ≥G3 (8 mg/day QD, N = 38): 0 n
- Malaise, ≥G3 (8 mg/day QD, N = 38): 0 n
- Nausea, any grade (8 mg/day QD, N = 38): 5 n
- Nausea, ≥G3 (8 mg/day QD, N = 38): 0 n
- Other embolic and thrombotic events, ≥G3 (8 mg/day QD, N = 38): 0 n
- Pruritus, ≥G3 (8 mg/day QD, N = 38): 0 n
- Rash maculo-papular, any grade (8 mg/day QD, N = 38): 11 n
- Stomatitis, ≥G3 (8 mg/day QD, N = 38): 0 n
- Urticaria, any grade (8 mg/day QD, N = 38): 5 n
- Urticaria, ≥G3 (8 mg/day QD, N = 38): 0 n
- Vomiting, ≥G3 (8 mg/day QD, N = 38): 0 n
- WBC decreased, any grade (8 mg/day QD, N = 38): 5 n
- WBC decreased, ≥G3 (8 mg/day QD, N = 38): 0 n
- proportion of patients whose dose was decreased (10 mg/day QD (MTD) group, 7/18): 38.9%
- proportion of patients whose treatment was interrupted (10 mg/day QD (MTD) group, 12/18): 66.7%
- incidence of discontinuation due to ADRs (10 mg/day QD (MTD), 2/18): 11.1%
- AST increased, ≥G3 (10 mg/day QD, N = 18): 0 n
- Decreased appetite, ≥G3 (10 mg/day QD, N = 18): 0 n
- Diarrhea, ≥G3 (10 mg/day QD, N = 18): 0 n
- Dry skin, ≥G3 (10 mg/day QD, N = 18): 0 n
- Embolic and thrombotic events, any grade (10 mg/day QD, N = 18): 5 n
- Hypoalbuminemia, ≥G3 (10 mg/day QD, N = 18): 0 n
- Interstitial lung disease, any grade (10 mg/day QD, N = 18): 0 n
- Interstitial lung disease, ≥G3 (10 mg/day QD, N = 18): 0 n
- Malaise, ≥G3 (10 mg/day QD, N = 18): 0 n
- Nausea, ≥G3 (10 mg/day QD, N = 18): 0 n
- Platelet count decreased, any grade (10 mg/day QD, N = 18): 12 n
- Pruritus, ≥G3 (10 mg/day QD, N = 18): 0 n
- Pyrexia, ≥G3 (10 mg/day QD, N = 18): 0 n
- Rash maculo-papular, any grade (10 mg/day QD, N = 18): 0 n
- Rash maculo-papular, ≥G3 (10 mg/day QD, N = 18): 0 n
- Stomatitis, ≥G3 (10 mg/day QD, N = 18): 0 n
- Urticaria, any grade (10 mg/day QD, N = 18): 6 n
- WBC decreased, any grade (10 mg/day QD, N = 18): 0 n
- WBC decreased, ≥G3 (10 mg/day QD, N = 18): 0 n
- ALT increased, any grade (12 mg/day BID, N = 5): 0 n
- ALT increased, ≥G3 (12 mg/day BID, N = 5): 0 n
- AST increased, any grade (12 mg/day BID, N = 5): 0 n
- AST increased, ≥G3 (12 mg/day BID, N = 5): 0 n
- Decreased appetite, ≥G3 (12 mg/day BID, N = 5): 0 n
- Dermatological toxicity, ≥G3 (12 mg/day BID, N = 5): 0 n
- Dry skin, any grade (12 mg/day BID, N = 5): 0 n
- Dry skin, ≥G3 (12 mg/day BID, N = 5): 0 n
- Embolic and thrombotic events, any grade (12 mg/day BID, N = 5): 0 n
- Embolic and thrombotic events, ≥G3 (12 mg/day BID, N = 5): 0 n
- Hypoalbuminemia, ≥G3 (12 mg/day BID, N = 5): 0 n
- Malaise, ≥G3 (12 mg/day BID, N = 5): 0 n
- Nausea, ≥G3 (12 mg/day BID, N = 5): 0 n
- Other embolic and thrombotic events, any grade (12 mg/day BID, N = 5): 0 n
- Other embolic and thrombotic events, ≥G3 (12 mg/day BID, N = 5): 0 n
- Pruritus, any grade (12 mg/day BID, N = 5): 0 n
- Pruritus, ≥G3 (12 mg/day BID, N = 5): 0 n
- Pulmonary embolism, any grade (12 mg/day BID, N = 5): 0 n
- Pulmonary embolism, ≥G3 (12 mg/day BID, N = 5): 0 n
- Pyrexia, ≥G3 (12 mg/day BID, N = 5): 0 n
- Rash maculo-papular, ≥G3 (12 mg/day BID, N = 5): 0 n
- Rash, ≥G3 (12 mg/day BID, N = 5): 0 n
- Stomatitis, ≥G3 (12 mg/day BID, N = 5): 0 n
